System: not given
Conditions: not given

melting point [°C]	SMILES
192 to 193	Nc1cc(C(=O)N/N=C/c2ccc(OCC(=O)N[C@H]3CCN(Cc4ccccc4)C3)c3ccccc23)ccc1O [Example 797, (S)-2-{4-[(3-Amino-4-hydroxybenzoyl)hydrazonomethyl]naphthyl-1-yloxy}-N-(1-benzylpyrrolidin-3-yl)acetamide]
235 to 236.5	COc1cc(NC(=O)COc2ccc(OC(F)(F)F)cc2)ccc1/C=N/NC(=O)c1ccc(O)c(Cl)c1 [Example 804]
236 to 238	COc1cc(NC(=O)c2ccc3ccccc3n2)ccc1/C=N/NC(=O)c1ccc(O)c(Cl)c1 [Example 805, Quinoline-2-carboxylic Acid (4-[(3-Chloro-4-hydroxybenzoyl)hydrazonomethyl]-3-methoxyphenyl}amide]
216 to 218	COc1cc(/C=N/NC(=O)c2ccc(O)c(Cl)c2)ccc1NC(=O)COc1ccc(OC(F)(F)F)cc1 [Example 806, N-{4-[(3-Chloro-4-hydroxybenzoyl)hydrazonomethyl]-2-methoxyphenyl}-2-(4-trifluoromethoxyphenoy)acetamide]
159 to 162	COc1cc(/C=N/NC(=O)c2ccc(O)c(Cl)c2)ccc1NC(=O)c1ccc2ccccc2n1 [Example 807, Quinoline-2-carboxylic Acid {4-[(3-Chloro-4-hydroxybenzoyl)hydrazonomethyl]-2-methoxyphenyl}amide]
216 to 218	COc1cc(NC(=O)COc2ccc(Cl)cc2)ccc1/C=N/NC(=O)c1ccc(O)c(Cl)c1 [Example 808, N-(4-[(3-Chloro-4-hydroxybenzoyl)hydrazonomethyl]-3-methoxyphenyl}-2-(4-chlorophenoxy)acetamide]

More lines, now with the values behind:

SMILES	melting point [°C]
CCN(CC)CCN(CCOc1ccc(/C=N/NC(=O)c2ccc(O)c(Cl)c2)c2ccccc12)Cc1ccc(OC(F)(F)F)cc1 [Example 143, 3-Chloro-4-hydroxybenzoic Acid {4-[2-[N′-(2-N,N-Diethylaminoethyl)-N′-(4-trifluoromethoxy-benzylamino)]]ethoxy-1-naphthylmethylene}hydrazide]	134 to 136
COc1cc(OCCN2CCc3ccccc3C2)ccc1/C=N/NC(=O)c1ccc(O)c(N)c1 [Example 792, 3-Amino-4-hydroxybenzoic Acid {4-[2-(1,2,3,4-Tetrahydro-isoquinolin-2-yl)ethoxy]-2-methoxybenzylidene}hydrazide]	162 to 164
COc1cc(/C=N/NC(=O)c2ccc(O)c(N)c2)cc(OC)c1OCc1ccc(C(C)C)cc1 [Example 793, 3-Amino-4-hydroxybenzoic Acid [4-(4-Isopropylbenzyloxy)-3,5-dimethoxybenzylidene]-hydrazide]	174 to 175
COc1cc(OCC(=O)NC2CCN(Cc3ccccc3)C2)ccc1/C=N/NC(=O)c1ccc(O)c(N)c1 [Example 794, (R)-2-{4-[(3-Amino-4-hydroxybenzoyl)hydrazonomethyl]-3-methoxyphenoxy}-N-(1-benzylpyrrolidin-3-yl)acetamide]	157 to 160
Nc1cc(C(=O)N/N=C/c2ccc(OCC(=O)N[C@@H]3CCN(Cc4ccccc4)C3)c3ccccc23)ccc1O [Example 795, (R)-2-{4-[(3-Amino-4-hydroxybenzoyl)hydrazonomethyl]naphthyl-1-yloxy}-N-(1-benzylpyrrolidin-3-yl)acetamide]	187 to 192

Biological target: rat liver receptor (Rattus norvegicus, UniProt P30082)
Conditions: literature, Bioorganic and Medicinal Chemistry Letters 2(9):915-918; cited from earlier work

Sequence of rat liver receptor (P30082 27-485): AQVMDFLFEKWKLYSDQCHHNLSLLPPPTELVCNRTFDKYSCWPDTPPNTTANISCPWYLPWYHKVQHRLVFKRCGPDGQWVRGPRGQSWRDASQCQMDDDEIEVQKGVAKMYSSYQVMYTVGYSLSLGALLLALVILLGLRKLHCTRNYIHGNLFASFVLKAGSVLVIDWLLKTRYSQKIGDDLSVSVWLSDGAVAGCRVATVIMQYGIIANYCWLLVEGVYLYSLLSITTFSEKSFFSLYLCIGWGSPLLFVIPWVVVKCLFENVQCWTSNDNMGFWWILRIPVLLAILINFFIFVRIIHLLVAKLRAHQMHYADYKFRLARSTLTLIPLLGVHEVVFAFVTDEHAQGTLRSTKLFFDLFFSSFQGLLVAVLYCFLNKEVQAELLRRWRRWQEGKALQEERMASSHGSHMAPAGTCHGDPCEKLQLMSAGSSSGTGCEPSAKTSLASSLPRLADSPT

SMILES	displacement of glucagon from the rat liver receptor
CN(C)CCCN(C)c1nc2cc(Cl)c(Cl)cc2nc1C=Cc1ccccc1 [(2-styryl-3-[3-(dimethylamino)propylmethyl-amino]-6,7-dichloroquinoxaline]	displace glucagon from the rat liver receptor

Reference: patent US6613942B1 (Novo Nordisk A/S, priority 1997, dated 2003)
